Drawing on patent US5792780A, “Azole compounds, their production and use” (Takeda Chemical Industries, Ltd., priority 1993, dated 1998), this text covers ED50 and zone of inhibition for 19 molecules.

Assay [1] relates to Candida albicans TA. Description: protective effect against experimental infection in mice (survival rate 7 days after infection). The settings on record: po, 168 h, survival 7 days after infection. Format: in vivo, Crj:CDF1 mice. On the procedure:
Test Method: Five-week-old Crj:CDF1 mice were inoculated with the minimum lethal dose of Candida albicans TA intravenously. The test compound was suspended in a solution of 0.2% or 0.5% sodium carboxymethylcellulose (CMC). The suspension was administered orally once immediately after infection. The activity was expressed in terms of ED50 values calculated by the Reed and Muench method from the survival rate 7 days after infection.
Test Method: Five-week-old Crj:CDF1 mice were inoculated with the minimum lethal dose of Candida albicans TA intravenously. The test compound was suspended in a solution of 0.5% sodium carboxymethylcellulose (CMC). The suspension was administered orally once immediately after infection. The activity was expressed in terms of ED50 values calculated by the Reed and Muench method from the survival rate 7 days after infection.

The test system of assay [2] is Candida albicans IFO 0583. Briefly: growth inhibition zone, paper disc agar diffusion. It is filed as cell-based. The settings on record: IFO0583, 48 h, Table 6, Medium A, 1000 μg/ml, 28° C., two-day culture, read-out: Diameter of growth-inhibition zone. On the procedure: Evaluation of the antifungal activities of the compound of the present invention was conducted by the following method: a sheet of filter paper disc (manufactured by Toyo Seisakusho, 8 mm in diameter) soaked in a 1000 μg/ml solution of a compound of the present invention in methanol was placed on an agar plate containing various fungi, which was incubated at 28° C. for two days, and the diameter of the growth inhibition zone around the filter paper disc was measured. The following culture media were used:
A: yeast nitrogen base agar medium (pH 7.0)
B: peptone-yeast extract-glucose agar medium (pH 7.0)
On the technique in general: A growth-free zone around the sample is the usual read-out of agar diffusion tests.

[3] abbreviates: Table 8, P.O. once immediately after infection, 0.5% CMC.
[4] abbreviates: Table 7, P.O. once immediately after infection, 0.2% CMC.
[5] abbreviates: Table 9, compounds of formula (VI), P.O. once immediately after infection, 0.5% CMC.

By ED50 is commonly meant the dose at which the effect has come halfway, by size or by number of responders. For `C[C@@H](N1CC(=O)N(c2ccc(OC(F)(F)C(F)F)cc2)CC1=O)[C@](O)(Cn1cncn1)c1ccc(F)cc1F` [Compound 12, 1-[(1R,2R)-2-(2,4-difluorophenyl)-2-hydroxy-1-methyl-3-(1H-1,2,4-triazol-1-yl)propyl]-4-[4-(1,1,2,2-tetrafluoroethoxy)phenyl]-2,5-peperazinedione], in assay [1] (setting [3]), the 50% effect level (ED50) was put at a dose of 2.8 mg/kg.
Turning to `C[C@@H](N1CCN(c2ccc(OCC(F)(F)C(F)F)cc2)C1=O)[C@](O)(Cn1cncn1)c1ccc(F)cc1` [Compound 19, 1-[(1R,2R)-2-(4-fluorophenyl)-2-hydroxy-1-methyl-3-(1H-1,2,4-triazol-1-yl)propyl]-3-[4-(2,2,3,3-tetrafluoropropoxy)phenyl]-2-imidazolidinone], the 50% effect level in assay [1] (setting [3]) (ED50) was put at a dose of 0.77 mg/kg.
The term zone of inhibition denotes the size of the clear area around the sample on an inoculated plate. `C[C@@H](N1CC(=O)N(c2ccc(F)cc2F)C1=O)[C@](O)(Cn1cncn1)c1ccc(F)cc1F` [Compound 3, 1-[(1R,2R)-2-(2,4-difluorophenyl)-2-hydroxy-1-methyl-3-(1H-1,2,4-triazol-1-yl)propyl]-3-(2,4-difluorophenyl)-2,4-imidazolidinedione] returned an ED50 in assay [1] (setting [4]) of 2 mg/kg. In addition, the zone of inhibition at 1000 µg/mL in assay [2] came to 41 mm.
Taken in the same sequence, the figures for `C[C@@H](N1CCN(c2ccc(OCC(F)(F)F)cc2)C1=O)[C@](O)(Cn1cncn1)c1ccc(F)cc1F` [Compound 9, 1-[(1R,2R)-2-(2,4-difluorophenyl)-2-hydroxy-1-methyl-3-(1H-1,2,4-triazol-1-yl)propyl]-3-[4-(2,2,2-trifluoroethoxy)phenyl]-2-imidazolidinone] were 0.65 mg/kg and 41 mm.
Consider `C[C@@H](N1CCN(c2ccc(OCC(F)(F)C(F)F)cc2)C1=O)[C@](O)(Cn1cncn1)c1ccccc1F` [Compound 17, 1-[(1R,2R)-2-(2-fluorophenyl)-2-hydroxy-1-methyl-3-(1H-1,2,4-triazol-1-yl)propyl]-3-[4-(2,2,3,3-tetrafluoropropoxy)phenyl]-2-imidazolidinone], for which, in assay [1] (setting [3]), the 50% effect level (ED50) was put at a dose of 0.65 mg/kg.
`C[C@@H](n1ccn(-c2ccc(OCC(F)(F)C(F)F)cc2)c1=O)[C@](O)(Cn1cncn1)c1ccccc1F` [Reference Example 50, 1-[(1R,2R)-2-(2-fluorophenyl)-2-hydroxy-1-methyl-3-(1H-1,2,4-triazol-1-yl)propyl]-3-[4-(2,2,3,3-tetrafluoropropoxy)phenyl]-2(1H,3H)-imidazolone]: in assay [1] (setting [5]), it took a dose of 0.32 mg/kg to reach the 50% effect level (ED50).
`C[C@@H](N1CCN(c2ccc(Cl)cc2)C1=O)[C@](O)(Cn1cncn1)c1ccc(F)cc1F` [Compound 10, 1-(4-chlorophenyl)-3-[(1R,2R)-2-(2,4-difluorophenyl)-2-hydroxy-1-methyl-3-(1H-1,2,4-triazol-1-yl)propyl]-2-imidazolidinone] showed an ED50 in assay [1] (setting [4]) of 1.8 mg/kg. Moreover, the zone of inhibition at 1000 µg/mL in assay [2] is 42 mm.
`C[C@@H](n1ccn(-c2ccc(OC(F)(F)C(F)F)cc2)c1=O)[C@](O)(Cn1cncn1)c1ccc(F)cc1` [Reference Example 45, 1-[(1R,2R)-2-(4-fluorophenyl)-2-hydroxy-1-methyl-3-(1H-1,2,4-triazol-1-yl)propyl]-3-[4-(1,1,2,2-tetrafluoroethoxy)phenyl]-2(1H,3H)-imidazolone] gave an ED50 in assay [1] (setting [5]) of 0.18 mg/kg.
With `C[C@@H](N1CCN(c2ccc(F)cc2)C1=O)[C@](O)(Cn1cncn1)c1ccc(F)cc1F` [Compound 5, 1-[(1R,2R)-2-(2,4-difluorophenyl)-2-hydroxy-1-methyl-3-(1H-1,2,4-triazol-1-yl)propyl]-3-(4-fluorophenyl)-2-imidazolidinone], the zone of inhibition at 1000 µg/mL in assay [2] turned out to be 47 mm.
Consider `C[C@@H](N1CCN(c2ccc(OC(F)(F)C(F)F)cc2)C1=O)[C@](O)(Cn1cncn1)c1ccccc1F` [Compound 16, 1-[(1R,2R)-2-(2-fluorophenyl)-2-hydroxy-1-methyl-3-(1H-1,2,4-triazol-1-yl)propyl]-3-[4-(1,1,2,2-tetrafluoroethoxy)phenyl]-2-imidazolidinone], for which the 50% effect level in assay [1] (setting [3]) (ED50) was put at a dose of 0.35 mg/kg.
`C[C@@H](n1ccn(-c2ccc(OC(F)(F)C(F)F)cc2)c1=O)[C@](O)(Cn1cncn1)c1ccccc1F` [Reference Example 49, 1-[(1R,2R)-2-(2-fluorophenyl)-2-hydroxy-1-methyl-3-(1H-1,2,4-triazol-1-yl)propyl]-3-[4-(1,1,2,2-tetrafluoroethoxy)phenyl]-2(1H,3H)-imidazolone] returned an ED50 in assay [1] (setting [5]) of 0.18 mg/kg.
As to `C[C@@H](N1CC(=O)N(c2ccc(OCC(F)(F)C(F)F)cc2)CC1=O)[C@](O)(Cn1cncn1)c1ccc(F)cc1F` [Compound 11, 1-[(1R,2R)-2-(2,4-difluorophenyl)-2-hydroxy-1-methyl-3-(1H-1,2,4-triazol-1-yl)propyl]-4-[4-(2,2,3,3-tetrafluoropropoxy)phenyl]-2,5-piperazinedione], in assay [2], the zone of inhibition at 1000 µg/mL was found to be 31 mm.
For the molecule `C[C@@H](N1CCN(c2ccc(OC(F)(F)C(F)F)cc2)C1=O)[C@](O)(Cn1cncn1)c1ccc(F)cc1` [Compound 18, 1-[(1R,2R)-2-(4-fluorophenyl)-2-hydroxy-1-methyl-3-(1H-1,2,4-triazol-1-yl)propyl]-3-[4-(1,1,2,2-tetrafluoroethoxy)phenyl]-2-imidazolidinone], the ED50 in assay [1] (setting [3]) is 0.35 mg/kg.
With `C[C@@H](N1CCN(c2ccc(OC(F)(F)C(F)F)cc2)C1=O)[C@](O)(Cn1cncn1)c1ccc(F)cc1F` [Compound 7, 1-[(1R,2R)-2-(2,4-difluorophenyl)-2-hydroxy-1-methyl-3-(1H-1,2,4-triazol-1-yl)propyl]-3-[4-(1,1,2,2-tetrafluoroethoxy)phenyl]-2-imidazolidinone], the figures for the ED50 in assay [1] (setting [4]) and in assay [1] (setting [3]) were 0.65 mg/kg and 0.35 mg/kg, respectively. Moreover, the zone of inhibition at 1000 µg/mL in assay [2] was found to be 35 mm.
In turn, `C[C@@H](N1CCN(c2ccc(OCC(F)(F)C(F)F)cc2)C(=O)C1=O)[C@](O)(Cn1cncn1)c1ccc(F)cc1F` [Compound 14, 1-[(1R,2R)-2-(2,4-difluorophenyl)-2-hydroxy-1-methyl-3-(1H-1,2,4-triazol-1-yl)propyl]-4-[4-(2,2,3,3-tetrafluoropropoxy)phenyl]-2,3-piperazinedione] showed an ED50 in assay [1] (setting [3]) of 2.8 mg/kg.
The molecule `C[C@@H](N1CCN(c2ccc(OCC(F)(F)C(F)F)cc2)C1=O)[C@](O)(Cn1cncn1)c1ccc(F)cc1F` [Compound 6, 1-[(1R,2R)-2-(2,4-difluorophenyl)-2-hydroxy-1-methyl-3-(1H-1,2,4-triazol-1-yl)propyl]-3-[4-(2,2,3,3-tetrafluoropropoxy)phenyl]-2-imidazolidinone] yielded an ED50 in assay [1] (setting [3]) of 0.71 mg/kg. Besides, the zone of inhibition at 1000 µg/mL in assay [2] was 36 mm.
Consider `C[C@@H](N1CCN(c2ccc(OCC(F)(F)C(F)(F)F)cc2)C1=O)[C@](O)(Cn1cncn1)c1ccc(F)cc1F` [Compound 8, 1-[(1R,2R)-2-(2,4-difluorophenyl)-2-hydroxy-1-methyl-3-(1H-1,2,4-triazol-1-yl)propyl]-3-[4-(2,2,3,3,3-pentafluoropropoxy)phenyl]-2-imidazolidinone], for which the ED50 in assay [1] (setting [4]) was determined as 2 mg/kg. Further, the zone of inhibition at 1000 µg/mL in assay [2] amounted to 28 mm.
In the case of `C[C@@H](N1CCN(c2ccc(OC(F)(F)C(F)F)cc2)C(=O)C1=O)[C@](O)(Cn1cncn1)c1ccc(F)cc1F` [Compound 15, 1-[(1R,2R)-2-(2,4-difluorophenyl)-2-hydroxy-1-methyl-3-(1H-1,2,4-triazol-1-yl)propyl]-4-[4-(1,1,2,2-tetrafluoroethoxy)phenyl]-2,3-piperazinedione], the ED50 in assay [1] (setting [3]) was determined as 2 mg/kg.
In the case of `C[C@@H](n1ccn(-c2ccc(OCC(F)(F)C(F)F)cc2)c1=O)[C@](O)(Cn1cncn1)c1ccc(F)cc1` [Reference Example 46, 1-[(1R,2R)-2-(4-fluorophenyl)-2-hydroxy-1-methyl-3-(1H-1,2,4-triazol-1-yl)propyl]-3-[4-(2,2,3,3-tetrafluoropropoxy)phenyl]-2(1H,3H)-imidazolone], the ED50 in assay [1] (setting [5]) is 0.32 mg/kg.
